From the NIST ThermoML archive (doi:10.1016/j.jct.2012.05.023)

Columns and labels:
[1] = xn = mol fraction of the nth substance listed; details: 101.3 kPa, Liquid; for mass density: Vibrating tube method; for speed of sound: Sing-around technique in a fixed-path interferometer
[2] = refractive index (Na D-line) (dimensionless); xn = mol fraction of the nth substance listed; details: 101.3 kPa, Liquid, Standard Abbe refractometry

c1ccc2c(c1)CCCC2 [1,2,3,4-tetrahydronaphthalene] + CCCCCCCCCCCC
Details | mass density, 333.15 K [kg/m3] | mass density, 343.15 K [kg/m3] | refractive index, 293.15 K | refractive index, 303.15 K | refractive index, 313.15 K | refractive index, 323.15 K | refractive index, 333.15 K | refractive index, 343.15 K | speed of sound, 343.15 K [m/s]
[1], x1 = 0.1021 | 733.68 | 726.25 | – | – | – | – | – | – | 1122.2
[1], x1 = 0.2015 | 748.42 | 740.94 | – | – | – | – | – | – | 1132.6
[1], x1 = 0.307 | 765.58 | 758.06 | – | – | – | – | – | – | 1146.8
[1], x1 = 0.3998 | 782.08 | 774.5 | – | – | – | – | – | – | 1159.3
[1], x1 = 0.4985 | 801.28 | 793.67 | – | – | – | – | – | – | 1175.4
[1], x1 = 0.5961 | 822.25 | 814.59 | – | – | – | – | – | – | 1192.4
[1], x1 = 0.7019 | 847.55 | 839.81 | – | – | – | – | – | – | 1214.6
[1], x1 = 0.8012 | 874.21 | 866.35 | – | – | – | – | – | – | 1238.2
[1], x1 = 0.8998 | 903.72 | 895.83 | – | – | – | – | – | – | 1266.4
[1], x1 = 1 | 937.77 | 929.8 | – | – | – | – | – | – | 1299.8
[2], x1 = 0.1021 | – | – | 1.42964 | 1.42538 | 1.42102 | 1.4166 | 1.41223 | 1.4078 | –
[2], x1 = 0.2015 | – | – | 1.43768 | 1.43335 | 1.42887 | 1.42456 | 1.42011 | 1.41563 | –
[2], x1 = 0.307 | – | – | 1.44691 | 1.44249 | 1.43817 | 1.43374 | 1.42925 | 1.42483 | –
[2], x1 = 0.3998 | – | – | 1.45578 | 1.45151 | 1.44709 | 1.44258 | 1.43819 | 1.43363 | –
[2], x1 = 0.4985 | – | – | 1.46621 | 1.46183 | 1.45748 | 1.45304 | 1.44856 | 1.44396 | –
[2], x1 = 0.5961 | – | – | 1.47773 | 1.47333 | 1.46884 | 1.46437 | 1.45998 | 1.45528 | –
[2], x1 = 0.7019 | – | – | 1.49155 | 1.48719 | 1.48267 | 1.47817 | 1.47364 | 1.46911 | –
[2], x1 = 0.8012 | – | – | 1.5062 | 1.50172 | 1.49723 | 1.49269 | 1.48822 | 1.48355 | –
[2], x1 = 0.8998 | – | – | 1.52267 | 1.51815 | 1.51359 | 1.50898 | 1.5043 | 1.49932 | –
[2], x1 = 1 | – | – | 1.54155 | 1.53687 | 1.53216 | 1.52752 | 1.52274 | 1.51795 | –
